The text below walks through data of patent publication US5866540A, “Cyclic adhesion inhibitors” (Merck Patent Gesellschaft mit Beschrankter Haftung, priority 1995, dated 1999).

In one assay the target is αvβ3 (Homo sapiens, UniProt P05106+P06756). Put plainly: Solid-phase receptor binding ELISA: competition with biotinylated fibrinogen on coated integrin receptor. As to conditions: ligand biotinylated fibrinogen 1 μg/ml; receptor coated at 1 μg/ml; 3 h at 30° C.; triplicates. As to the method: (§1) The effect was found by using the method of J. W. Smith, Z. M. Ruggei, T. J. Kunicki and D. A. Cheesh descibed in J. Biol. Chem. 265, 12 267-12 271 (1990).
(§2) Details of the method are as follows:
(§3) A ninety six well untreated flat bottom plate was coated with 100 μl/well of 1 μg/ml receptor (αIIβe; αVβ3) in coating buffer and incubated on a shaker at 4° C. overnight. The plate was washed 1× with binding buffer and then blocked with blocking buffer (100 μl/well for two hours at 30° C. After an additional washing with binding buffer, the biotinylated ligand and the competitor were added.
(§4) The ligand fibrinogen was used at a final concentration of 1 μg/ml. The competitor was added at increasing concentrations. Both ligand and competitor were added in volume of 50 μl/well at 2× of the final concentration diluted in binding buffer.
(§5) The plate was covered and incubated for three hours at 30° C. To remove unbound material the plate was washed 3× with binding buffer 100 μl/well.
(§6) Goat anti biotin antibody alkaline phosphatase conjugate (1:2000 dilution) in binding buffer was added (100 μl/well) and the plate was incubated for one hour at 30° C.
(§7) The plate was washed 3× with binding buffer, the substrate solution was added and developed in the dark at room temperature for 1-5 minutes.
(§8) The reaction was stopped by addition of 100 μl/well of 0.4M NaOH and read in the ELISA reader at 405 nm.
(§9) All points were run in triplicates.

For the next assay, the target named is αIIbβ3 (Homo sapiens, UniProt P05106+P08514). The assay is described as above. As to conditions: ligand biotinylated fibrinogen 1 μg/ml; receptor coated at 1 μg/ml; 3 h at 30° C.; triplicates. The protocol: as §1, §2, §3, §4, §5, §6, §7, §8, §9

Where a SMILES comes first, the peptide text is derived from it. [ ]: non-standard residue; d: D form.

The term IC50 denotes the point on the concentration scale where inhibition reaches its midpoint. `CC(C)[C@@H]1NC(=O)[C@@H](Cc2ccccc2)NC(=O)[C@H](CC(=O)O)NC(=O)[C@H](C)NC(=O)[C@H](CCCN=C(N)N)NC1=O` [cyclo(--Arg--Ala--Asp--D--Phe--Val), cyclo(-Arg-Ala-Asp-D-Phe-Val)] (cyclo(AD[dF]VR)): the IC50 at αvβ3 was 0.77 µM; on αIIbβ3, > 100 µM.

As to `CC(C)[C@@H]1NC(=O)[C@H](Cc2ccccc2)NC(=O)[C@H](CC(=O)O)NC(=O)[C@@H](C)NC(=O)[C@H](CCCNC(=N)N)NC1=O` [cyclo(--Arg--D--Ala--Asp--Phe--Val), cyclo(-Arg-D-Ala-Asp-Phe-Val)] (cyclo(R[dA]DFV)), the results for the IC50 on αvβ3 and on αIIbβ3 were 52 µM and > 100 µM, respectively.

On to `CC(C)C[C@@H]1NC(=O)[C@@H](Cc2ccccc2)NC(=O)[C@H](CC(=O)O)NC(=O)CNC(=O)[C@H](CCCNC(=N)N)NC(=O)[C@H](C)NC1=O` [cyclo(--Arg--Gly--Asp--D--Phe--Leu--Ala), cyclo(-Arg-Gly-Asp-D-Phe-Leu-Ala)] (cyclo(ARGD[dF]L)), for which the values for the IC50 at αvβ3 and on αIIbβ3 were 1.1 µM and 0.76 µM, respectively.

As for `CC(C)C[C@@H]1NC(=O)[C@@H](Cc2ccccc2)NC(=O)[C@H](CC(=O)O)NC(=O)CNC(=O)[C@H](CCCNC(=N)N)NC(=O)CNC1=O` [cyclo(--Arg--Gly--Asp--D--Phe--Leu--Gly), cyclo(-Arg-Gly-Asp-D-Phe-Leu-Gly)] (cyclo(GRGD[dF]L)), the values for the IC50 on αvβ3 and at αIIbβ3 were 0.54 µM and 0.06 µM, respectively.

Consider `CC(C)[C@@H]1NC(=O)[C@@H](Cc2ccccc2)NC(=O)[C@H](CC(=O)O)NC(=O)CNC(=O)[C@H](CCCNC(=N)N)NC(=O)[C@H](C)NC1=O` [cyclo(--Arg--Gly--Asp--D--Phe--Val--Ala), cyclo(-Arg-Gly-Asp-D-Phe-Val-Ala)] (cyclo(RGD[dF]VA)), for which the values for the IC50 on αvβ3 and on αIIbβ3 were 0.9 µM and 0.32 µM, respectively.

Regarding `CC(C)[C@@H]1NC(=O)[C@@H](Cc2ccccc2)NC(=O)[C@H](CC(=O)O)NC(=O)CNC(=O)[C@H](CCCNC(=N)N)NC(=O)CNC1=O` [cyclo(--Arg--Gly--Asp--D--Phe--Val--Gly), cyclo(-Arg-Gly-Asp-D-Phe-Val-Gly)] (cyclo(RGD[dF]VG)), the IC50 at αvβ3 amounted to 0.62 µM; on αIIbβ3, 0.13 µM.

Turning to `C[C@@H]1NC(=O)[C@H]2CCCN2C(=O)[C@H](Cc2ccccc2)NC(=O)[C@H](CC(=O)O)NC(=O)CNC(=O)[C@H](CCCNC(=N)N)NC1=O` [cyclo(--Arg--Gly--Asp--Phe--D--Pro--Ala), cyclo(-Arg-Gly-Asp-Phe-D-Pro-Ala)] (cyclo(RGDF[dP]A)), the IC50 on αvβ3 was determined as 0.37 µM; at αIIbβ3 it was 0.74 µM.

For `N=C(N)NCCC[C@@H]1NC(=O)CNC(=O)[C@H]2CCCN2C(=O)[C@H](Cc2ccccc2)NC(=O)[C@H](CC(=O)O)NC(=O)CNC1=O` [cyclo(--Arg--Gly--Asp--Phe--D--Pro--Gly)] (cyclo(RGDF[dP]G)), the figures for the IC50 at αvβ3 and on αIIbβ3 were 1.06 µM and 1.5 µM, respectively.

Take `CC(C)C[C@@H]1NC(=O)[C@H](Cc2ccccc2)NC(=O)[C@H](CC(=O)O)NC(=O)CNC(=O)[C@H](CCCNC(=N)N)NC(=O)[C@@H](C)NC1=O` [cyclo(--Arg--Gly--Asp--Phe--Leu--D--Ala), cyclo(-Arg-Gly-Asp-Phe-Leu-D-Ala)] (cyclo(RGDFL[dA])): the IC50 was 0.31 µM at αvβ3 and 0.76 µM at αIIbβ3.

For the molecule `C[C@@H]1NC(=O)[C@@H]2CCCN2C(=O)[C@H](Cc2ccccc2)NC(=O)[C@H](CC(=O)O)NC(=O)CNC(=O)[C@H](CCCNC(=N)N)NC1=O` [cyclo(--Arg--Gly--Asp--Phe--Pro--Ala), cyclo(-Arg-Gly-Asp-Phe-Pro-Ala)] (cyclo(RGDFPA)), the figures for the IC50 on αvβ3 and on αIIbβ3 were 0.48 µM and 0.62 µM, respectively.

Consider `N=C(N)NCCC[C@@H]1NC(=O)CNC(=O)[C@@H]2CCCN2C(=O)[C@H](Cc2ccccc2)NC(=O)[C@H](CC(=O)O)NC(=O)CNC1=O` [cyclo(--Arg--Gly--Asp--Phe--Pro--Gly), cyclo(-Arg-Gly-Asp-Phe-Pro-Gly)] (cyclo(RGDFPG)), for which the IC50 on αvβ3 worked out at 0.16 µM; on αIIbβ3 it was 1.53 µM.

With `CC(C)[C@@H]1NC(=O)[C@H](Cc2ccccc2)NC(=O)[C@H](CC(=O)O)NC(=O)CNC(=O)[C@H](CCCNC(=N)N)NC(=O)[C@@H](C)NC1=O` [cyclo(--Arg--Gly--Asp--Phe--Val--D--Ala), cyclo(-Arg-Gly-Asp-Phe-Val-D-Ala)] (cyclo(RGDFV[dA])), the IC50 at αvβ3 came out at 0.25 µM; at αIIbβ3, 1.5 µM.

Take `CC(C)[C@@H]1NC(=O)[C@H](Cc2ccccc2)NC(=O)[C@H](CC(=O)O)NC(=O)CNC(=O)[C@@H](CCCNC(=N)N)NC(=O)[C@H](C)NC1=O` [cyclo(--D--Arg--Gly--Asp--Phe--Val--Ala), cyclo(-D-Arg-Gly-Asp-Phe-Val-Ala)] (cyclo([dR]GDFVA)): the results for the IC50 on αvβ3 and at αIIbβ3 were 4.5 µM and 22 µM, respectively.

As for `CC(C)[C@@H]1NC(=O)[C@H](Cc2ccccc2)NC(=O)[C@H](CC(=O)O)NC(=O)CNC(=O)[C@@H](CCCNC(=N)N)NC(=O)CNC1=O` [cyclo(--D--Arg--Gly--Asp--Phe--Val--Gly), cyclo(-D-Arg-Gly-Asp-Phe-Val-Gly)] (cyclo(G[dR]GDFV)), the IC50 at αvβ3 turned out to be 1.52 µM; at αIIbβ3, 20.5 µM.
